These are literature values, as cited in PMC9516332 (Frontiers in Oncology, 2022).

Conditions in all cases: cited from earlier work
In data set [1] the target is T1, panel of 255 wild-type kinases (Homo sapiens, UniProt P29320).
T1 sequence (P29320 21-983): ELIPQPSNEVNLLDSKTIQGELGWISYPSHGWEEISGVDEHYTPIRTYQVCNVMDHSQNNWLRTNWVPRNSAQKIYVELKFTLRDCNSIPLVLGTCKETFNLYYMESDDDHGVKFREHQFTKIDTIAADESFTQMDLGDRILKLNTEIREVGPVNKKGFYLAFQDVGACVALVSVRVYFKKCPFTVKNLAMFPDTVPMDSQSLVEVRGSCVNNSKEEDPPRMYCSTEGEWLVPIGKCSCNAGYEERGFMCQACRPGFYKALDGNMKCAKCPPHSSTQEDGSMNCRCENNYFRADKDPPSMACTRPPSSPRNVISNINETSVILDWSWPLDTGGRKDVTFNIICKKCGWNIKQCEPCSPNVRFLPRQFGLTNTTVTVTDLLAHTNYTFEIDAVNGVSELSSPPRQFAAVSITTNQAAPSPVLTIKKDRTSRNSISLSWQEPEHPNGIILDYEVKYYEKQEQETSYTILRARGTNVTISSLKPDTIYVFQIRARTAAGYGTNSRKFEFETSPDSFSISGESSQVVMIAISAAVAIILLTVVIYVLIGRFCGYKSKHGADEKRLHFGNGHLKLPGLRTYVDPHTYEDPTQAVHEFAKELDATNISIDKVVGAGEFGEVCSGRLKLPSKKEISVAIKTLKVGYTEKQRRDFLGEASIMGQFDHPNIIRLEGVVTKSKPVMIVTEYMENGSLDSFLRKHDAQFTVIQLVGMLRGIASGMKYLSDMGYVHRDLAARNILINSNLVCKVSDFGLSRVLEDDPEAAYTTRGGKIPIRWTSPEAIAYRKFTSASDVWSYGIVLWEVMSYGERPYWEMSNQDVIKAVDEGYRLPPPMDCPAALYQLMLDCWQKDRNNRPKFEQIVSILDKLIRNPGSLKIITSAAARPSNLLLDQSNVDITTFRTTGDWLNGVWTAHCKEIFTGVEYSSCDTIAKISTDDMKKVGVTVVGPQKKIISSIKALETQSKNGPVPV

Data set [2] has as its target T2, panel of 255 wild-type kinases (Homo sapiens, UniProt P52333).
T2 sequence (P52333 1-1124): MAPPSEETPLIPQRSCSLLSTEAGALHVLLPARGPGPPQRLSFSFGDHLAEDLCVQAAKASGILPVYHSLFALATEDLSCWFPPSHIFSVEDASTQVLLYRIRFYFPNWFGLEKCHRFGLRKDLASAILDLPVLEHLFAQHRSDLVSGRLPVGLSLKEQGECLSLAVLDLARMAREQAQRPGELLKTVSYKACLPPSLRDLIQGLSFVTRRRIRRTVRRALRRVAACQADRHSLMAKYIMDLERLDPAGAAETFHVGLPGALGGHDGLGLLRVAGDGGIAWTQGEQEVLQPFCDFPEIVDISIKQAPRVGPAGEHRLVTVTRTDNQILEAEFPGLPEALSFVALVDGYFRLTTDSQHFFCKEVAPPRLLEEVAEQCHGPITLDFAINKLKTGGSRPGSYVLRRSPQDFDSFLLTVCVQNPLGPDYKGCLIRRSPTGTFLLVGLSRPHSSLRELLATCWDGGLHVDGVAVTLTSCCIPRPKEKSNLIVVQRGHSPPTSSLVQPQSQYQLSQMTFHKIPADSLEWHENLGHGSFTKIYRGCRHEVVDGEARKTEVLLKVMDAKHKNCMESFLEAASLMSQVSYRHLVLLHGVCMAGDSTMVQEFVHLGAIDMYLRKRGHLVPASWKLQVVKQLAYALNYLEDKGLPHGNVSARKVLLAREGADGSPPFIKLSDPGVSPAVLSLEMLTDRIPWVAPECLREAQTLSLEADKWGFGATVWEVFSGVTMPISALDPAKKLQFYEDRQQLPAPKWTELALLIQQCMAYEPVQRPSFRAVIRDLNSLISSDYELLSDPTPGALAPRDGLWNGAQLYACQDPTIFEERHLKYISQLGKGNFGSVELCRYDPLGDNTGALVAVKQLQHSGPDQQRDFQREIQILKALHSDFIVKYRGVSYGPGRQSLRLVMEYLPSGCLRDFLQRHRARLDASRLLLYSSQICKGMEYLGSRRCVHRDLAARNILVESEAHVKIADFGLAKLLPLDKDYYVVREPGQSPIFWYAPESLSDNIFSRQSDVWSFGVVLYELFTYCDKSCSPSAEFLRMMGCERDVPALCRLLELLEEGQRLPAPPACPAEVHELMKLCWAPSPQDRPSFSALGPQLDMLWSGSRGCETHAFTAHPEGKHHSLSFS

The target in data set [3] is panel of 255 wild-type kinases (Homo sapiens, UniProt Q14680).
In data set [4] the target is panel of 255 wild-type kinases (Homo sapiens, UniProt Q9Y2H1).
Where [5] appears, read: kinase EPHA3, 1 µmol/L single concentration, ref DOI: 10.1158/1535-7163.MCT-18-0877.
[6] abbreviates: kinase JAK3, 1 µmol/L single concentration, ref DOI: 10.1158/1535-7163.MCT-18-0877.
Where [7] appears, read: MELK, 1 µmol/L single concentration, ref DOI: 10.1158/1535-7163.MCT-18-0877.
Where [8] appears, read: NDR2, 1 µmol/L single concentration, ref DOI: 10.1158/1535-7163.MCT-18-0877.
[9] abbreviates: kinase EPHA3, 1 µmol/L single concentration, ref DOI: 10.1371/journal.pone.0092146.
Setting [10] is: kinase JAK3, 1 µmol/L single concentration, ref DOI: 10.1371/journal.pone.0092146.
Where [11] appears, read: MELK, 1 µmol/L single concentration, ref DOI: 10.1371/journal.pone.0092146.
Where [12] appears, read: NDR2, 1 µmol/L single concentration, ref DOI: 10.1371/journal.pone.0092146.

Like-named read-outs stand apart in the source and are kept apart here.

Turning to `CC#CC(=O)N1CCC[C@H]1c1nc(-c2ccc(C(=O)Nc3ccccn3)cc2)c2c(N)nccn12` [acalabrutinib], the “%-inhibition at 1 µmol/L, EPHA3” value in data set [1] (setting [5]) was -2%. Besides, the “%-inhibition at 1 µmol/L, JAK3” value in data set [2] (setting [6]) is -1%. Also, in data set [3] (setting [7]), the “%-inhibition, MELK” value is on record as -0.54%. Moreover, the “%-inhibition, NDR2” value in data set [4] (setting [8]) is -6.41%.

Turning to `CCc1cc2c(cc1N1CCC(N3CCOCC3)CC1)C(C)(C)c1[nH]c3cc(C#N)ccc3c1C2=O` [alectinib], the “%-inhibition at 1 µmol/L, EPHA3” value in data set [1] (setting [5]) is 3.25%. The “%-inhibition at 1 µmol/L, JAK3” value in data set [2] (setting [6]) is recorded as 5.58%. In data set [3] (setting [7]), the “%-inhibition, MELK” value is given as 29%. In addition, the “%-inhibition, NDR2” value in data set [4] (setting [8]) is reported as 4%.

For the compound `COc1cc(N2CCC(N3CCN(C)CC3)CC2)ccc1Nc1ncc(Cl)c(Nc2ccccc2P(C)(C)=O)n1` [brigatinib], the “%-inhibition at 1 µmol/L, EPHA3” value in data set [1] is given as 0.198%. The “%-inhibition at 1 µmol/L, JAK3” value in data set [2] is reported as 97%. For the same compound, the “%-inhibition, MELK” value in data set [3] is 49%. Further, the “%-inhibition, NDR2” value in data set [4] is recorded as 62%.

For `Cc1cc(Nc2ncc(Cl)c(Nc3ccccc3S(=O)(=O)C(C)C)n2)c(OC(C)C)cc1C1CCNCC1` [ceritinib], in data set [1] (setting [5]), the “%-inhibition at 1 µmol/L, EPHA3” value is 1.74%. Besides, the “%-inhibition at 1 µmol/L, JAK3” value in data set [2] (setting [6]) is listed as 2.84%. Besides, the “%-inhibition, MELK” value in data set [3] (setting [7]) was 4.5%. Also, the “%-inhibition, NDR2” value in data set [4] (setting [8]) is on record as 14%.

On to `O=C(c1ccc(F)c(F)c1Nc1ccc(I)cc1F)N1CC(O)([C@@H]2CCCCN2)C1` [cobimetinib], for which the “%-inhibition at 1 µmol/L, EPHA3” value in data set [1] (setting [5]) was 2%. The “%-inhibition at 1 µmol/L, JAK3” value in data set [2] (setting [6]) is -3.25%. In addition, the “%-inhibition, MELK” value in data set [3] (setting [7]) is on record as 2.53%. In addition, the “%-inhibition, NDR2” value in data set [4] (setting [8]) was 2.54%.

As for `C[C@@H](Oc1cc(-c2cnn(C3CCNCC3)c2)cnc1N)c1c(Cl)ccc(F)c1Cl` [crizotinib], the “%-inhibition at 1 µmol/L, EPHA3” value in data set [1] (setting [9]) was 19%. For the same compound, the “%-inhibition at 1 µmol/L, JAK3” value in data set [2] (setting [10]) is recorded as 77%. Besides, the “%-inhibition, MELK” value in data set [3] (setting [11]) was 5.47%. Also, the “%-inhibition, NDR2” value in data set [4] (setting [12]) is recorded as -4.76%.

For `CC(C)(C)c1nc(-c2cccc(NS(=O)(=O)c3c(F)cccc3F)c2F)c(-c2ccnc(N)n2)s1` [dabrafenib], the “%-inhibition at 1 µmol/L, EPHA3” value in data set [1] (setting [9]) is on record as 18%. In data set [2] (setting [10]), the “%-inhibition at 1 µmol/L, JAK3” value is reported as 22%. The “%-inhibition, MELK” value in data set [3] (setting [11]) is on record as 82%. In addition, the “%-inhibition, NDR2” value in data set [4] (setting [12]) is -2%.

Take `C=CC(=O)N1CCC[C@@H](n2nc(-c3ccc(Oc4ccccc4)cc3)c3c(N)ncnc32)C1` [ibrutinib]: the “%-inhibition at 1 µmol/L, EPHA3” value in data set [1] (setting [5]) was 3.8%. Besides, the “%-inhibition at 1 µmol/L, JAK3” value in data set [2] (setting [6]) was 91%. Further, in data set [3] (setting [7]), the “%-inhibition, MELK” value is on record as 8%. The “%-inhibition, NDR2” value in data set [4] (setting [8]) was 3.47%.

In the case of `CO[C@@H]1[C@H](N(C)C(=O)c2ccccc2)C[C@H]2O[C@]1(C)n1c3ccccc3c3c4c(c5c6ccccc6n2c5c31)C(=O)NC4` [midostaurin], the “%-inhibition at 1 µmol/L, EPHA3” value in data set [1] (setting [5]) was 8%. Besides, the “%-inhibition at 1 µmol/L, JAK3” value in data set [2] (setting [6]) is 100%. Moreover, the “%-inhibition, MELK” value in data set [3] (setting [7]) is 95%. Besides, the “%-inhibition, NDR2” value in data set [4] (setting [8]) was 22%.

Regarding `C=CC(=O)Nc1cc(Nc2nccc(-c3cn(C)c4ccccc34)n2)c(OC)cc1N(C)CCN(C)C` [osimertinib], in data set [1] (setting [5]), the “%-inhibition at 1 µmol/L, EPHA3” value is recorded as 0.753%. For the same compound, the “%-inhibition at 1 µmol/L, JAK3” value in data set [2] (setting [6]) is on record as 97%. Further, the “%-inhibition, MELK” value in data set [3] (setting [7]) is given as 2.22%. In addition, in data set [4] (setting [8]), the “%-inhibition, NDR2” value is recorded as 10%.

Regarding `CC(=O)Nc1cccc(-n2c(=O)n(C3CC3)c(=O)c3c(Nc4ccc(I)cc4F)n(C)c(=O)c(C)c32)c1` [trametinib], in data set [1] (setting [9]), the “%-inhibition at 1 µmol/L, EPHA3” value is on record as -6%. Further, in data set [2] (setting [10]), the “%-inhibition at 1 µmol/L, JAK3” value is 6%. In addition, the “%-inhibition, MELK” value in data set [3] (setting [11]) was -0.588%. In data set [4] (setting [12]), the “%-inhibition, NDR2” value was -1.48%.

With `CCCS(=O)(=O)Nc1ccc(F)c(C(=O)c2c[nH]c3ncc(-c4ccc(Cl)cc4)cc23)c1F` [vemurafenib], the “%-inhibition at 1 µmol/L, EPHA3” value in data set [1] (setting [9]) is on record as -7.52%. In addition, the “%-inhibition at 1 µmol/L, JAK3” value in data set [2] (setting [10]) was 10%. Also, the “%-inhibition, MELK” value in data set [3] (setting [11]) is 4%. Besides, the “%-inhibition, NDR2” value in data set [4] (setting [12]) was -2.51%.
